Test results taken from article PMC5799266, “ComX-Induced Exoproteases Degrade ComX in Bacillus subtilis PS-216” (Frontiers in Microbiology, 2018).
Where no end group is shown, it is not given here.

What was measured:
[1] = tested on: exoproteases in B. subtilis PS-216 floating biofilm spent media; test: ComX biological activity decay in floating biofilm spent media (biosensor BM1456, PsrfAA-yfp); type: in vitro ADME, Bacillus subtilis; conditions: for ComX biological activity decay: T0 vs 24 h at 37°C, three biological replicates
Protocol: (§1) The ComX biological activity was quantified in spent media of various B. subtilis strains harvested after 36 and 48 h of static growth, using biosensor strains: B. subtilis BM1456 and BM1400. […] The BM1400 strain only served to determine background fluorescence, since it carries no fluorescent marker. […] The BM1456 biosenor responds to ComX in the spent medium by inducing the PsrfAA-yfp reporter ([Oslizlo et al., 2014]). Since the induction of PsrfAA is proportional to the quantity of ComX ([Ansaldi et al., 2002]) we used this assay to estimate the quantity of biologically active ComX in the spent media of various pellicles.
(§2) Both biosensor strains were grown in 5 ml of CM medium supplemented with 1% (v/v) of filtered spent media of selected strains for 6 h at 37°C with shaking (200 rpm). After 6 h of incubation 200 μl aliquots were dispensed in a sterile 96-well black transparent bottom microtiter plate. The PsrfAA-yfp expression was quantified by YFP (yellow fluorescent protein) fluorescence intensity. YFP was excited at 510 nm and emissions were measured at 530 nm. The gain was set to 100. Each PsrfAA-yfp reading was normalized to OD650. The normalized autofluorescence background of BM1400 grown in the same experimental conditions was subtracted. Additionally, we subtracted the PsrfAA-yfp expression of cells exposed to ΔcomQ spent medium (lacks ComX), to account for ComX independent YFP expression.
ComX biological activity was determined in the spent media immediately after harvest (T0) and after a 24 h (T24) incubation at 37°C. We reasoned that if exoproteases in the spent medium degrade ComX the ComX biological activity at T0 will be greater than at T24. To calculate the ComX biological activity decay we used the following equation:
ComXbiologicalactivitydecay[%]= ComXbiologicalactivity(To)−ComXbiologicalactivity(T24)/ComXbiologicalactivity(To)*100
The same approach was used to determine ComX biological activity decay in the spent media supplemented with subtilisin (0.1 mg/ml) or metalloprotease inhibitor EDTA (1 mM) after harvesting or to estimate the effect of commercially available subtilisin on ComX heterologously produced in E. coli ED367.

[2] = tested on: exoprotease production of B. subtilis PS-216 ΔcomQ floating biofilms; test: Proteolytic activity in spent media of floating biofilms grown with ComX (casein-gelatin plates); type: cell-based, Bacillus subtilis; conditions: ΔcomQ mutant, 24 h floating biofilm in MSgg + 20% (v/v) ED367 M9 spent medium with ComX, 12-well plates, 37°C; casein-gelatin plate zones; three biological replicates
Protocol: (§3) To harvest pellicle spent media 1% (v/v) of B. subtilis spores were inoculated in 4 ml of MSgg medium ([Branda et al., 2001]), in some cases complemented with 20% (v/v) spent M9 minimal medium and incubated in sterile 12-well microtiter plates in static conditions at 37°C.
To prepare casein gelatin agar plates 1% (w/v) casein sodium salt from bovine milk (Sigma–Aldrich, United States) and 1% (w/v) gelatin from porcine skin (Sigma–Aldrich, United States) were thoroughly dissolved in 0.02 M NaOH and the pH was equilibrated to 7 ± 0.2 as described by [Montville (1983)]. Wherever, the proteolytic inhibition by ethylenediaminetetraacetic acid (EDTA) was tested, EDTA was added to the casein gelatin medium in 1 mM final concentration. Finally, 1.5% (w/v) of agar was added to the casein gelatin medium. The casein gelatin medium was autoclaved at 110°C. 40 ml of the medium was poured into Petri dishes with 9 cm diameter. Wells (6 mm diameter) were cut into the casein gelatin agar using an agar punch cutter.
Proteolytic activity was determined in B. subtilis spent medium at different time points. The spent medium below the biofilm was centrifuged for 5 min at 8000 g to remove remaining planktonic cells and sterilized through filters with 0.2 μm pores. […] The plates were incubated for 16 h at 37°C when the proteolytic zones were measured. […]

subtilisin = test: ComX biological activity decay in E. coli ED367 M9 spent medium with subtilisin (biosensor BM1456); type: in vitro ADME; conditions: E. coli ED367 M9 spent medium with heterologous ComX, subtilisin 0.1 mg/ml, 24 h at 37°C, vs subtilisin untreated control, three biological replicates
Protocol: as §1
as §2, with “Additionally, we subtracted the PsrfAA-yfp expression of cells exposed to ΔcomQ spent medium (lacks ComX), to account for ComX independent YFP expression.” left out
ComX biological activity was determined in the spent media immediately after harvest (T0) and after a 24 h (T24) incubation at 37°C. […]

[3] = tested on: PaprE-gfp expression in B. subtilis PS-216 mutants; test: PaprE-gfp expression during formation of floating biofilm, complementation with ComX; type: cell-based, Bacillus subtilis
Protocol: To measure gene expression in floating biofilms (pellicles) a spore suspension 1% (v/v) was inoculated into the liquid MSgg medium. In some experiments the MSgg medium was supplemented with 20% (v/v) of the spent medium containing ComX, which was heterologously produced by E. coli ED367 ([Ansaldi et al., 2002]). The spent M9 medium of E. coli ED367 that was not induced by IPTG was used as a negative control.
Briefly, 200 μl aliquots of inoculated MSgg medium, sometimes supplemented with M9 spent medium were dispensed in a sterile 96-well black transparent bottom microtiter plate in four technical replicates. The lid was sealed with micropore tape and the space between wells was filled with sterile distilled water to minimize the effect of medium evaporation. The microtiter plate was incubated in the Cytation 3 imaging reader (BioTek, United States) at 37°C without shaking. Optical density at 650 nm and fluorescence intensity were measured in half hour intervals for up to 60 h. Fluorescence intensity of GFP (green fluorescent protein) was used to monitor PaprE-gfp expression with excitation at 480 nm and emission at 510 nm. The gain was set on 50. In a parallel experimental setup the same strains without the fluorescent marker were always cultured. To calculate the final expression the autofluorescence of unmarked strains was deducted from the fluorescence of the marked strains. Fluorescence intensity was normalized per OD650 of fluorescently labeled strains at each time point.

[4] = tested on: B. subtilis PS-216 ΔcomQ floating biofilm; test: Floating biofilm morphology after addition of ComX; type: cell-based, Bacillus subtilis; conditions: ΔcomQ mutant at 24 h, MSgg + 20% (v/v) ED367 M9 spent medium with ComX
Protocol: as §3

[5] = tested on: exoproteases in B. subtilis PS-216 floating biofilm spent media; test: Proteolytic activity of harvested floating biofilm spent media with EDTA or subtilisin added after harvest (casein-gelatin plates); type: biochemical, Bacillus subtilis; conditions: EDTA 1 mM added to wt floating biofilm spent medium, 16 h at 37°C
Protocol: To prepare casein gelatin agar plates 1% (w/v) casein sodium salt from bovine milk (Sigma–Aldrich, United States) and 1% (w/v) gelatin from porcine skin (Sigma–Aldrich, United States) were thoroughly dissolved in 0.02 M NaOH and the pH was equilibrated to 7 ± 0.2 as described by [Montville (1983)]. […] Finally, 1.5% (w/v) of agar was added to the casein gelatin medium. The casein gelatin medium was autoclaved at 110°C. 40 ml of the medium was poured into Petri dishes with 9 cm diameter. Wells (6 mm diameter) were cut into the casein gelatin agar using an agar punch cutter.
Proteolytic activity was determined in B. subtilis spent medium at different time points. The spent medium below the biofilm was centrifuged for 5 min at 8000 g to remove remaining planktonic cells and sterilized through filters with 0.2 μm pores. Spent medium was diluted in 10 mM sodium acetate buffer with 5 mM calcium acetate (pH 7.5). If EDTA was added to experimental samples, spent medium was diluted in PBS buffer (10 mM sodium phosphate dibasic, 1 mM potassium phosphate monobasic, 137 mM NaCl, and 2.7 mM KCl pH 7). The diluted spent medium (100 μl) was dispensed into the wells punched into the casein gelatin agar. The plates were incubated for 16 h at 37°C when the proteolytic zones were measured. […]

Compound | ComX biological activity decay, change with subtilisin ([1]; comP::cat or degQ::tet spent media + subtilisin 0.1 mg/ml added after harvest vs without, 24 h at 37°C, biosensor BM1456) | ComX biological activity decay ([1]; spent media of mutant strains (degQ::tet, comP::cat; low proteolytic activity) harvested at 36 and 48 h, biosensor BM1456) | ComX biological activity decay ([1]; spent media of wt PS-216 floating biofilms harvested at 36 and 48 h (MSgg), biosensor BM1456 PsrfAA-yfp fluorescence) | ComX biological activity decay, change with EDTA ([1]; wt spent medium + EDTA 1 mM added after harvest vs without, 24 h at 37°C, biosensor BM1456) | complementation of spent media proteolytic activity [2] | decay of the ComX biological activity, change with subtilisin (subtilisin) | complementation of PaprE-gfp expression ([3]; degQ::tet mutant of PS-216, MSgg + 20% (v/v) ED367 M9 spent medium with ComX) | complementation of PaprE-gfp expression ([3]; ΔcomQ degQ::tet double mutant of PS-216, MSgg + 20% (v/v) ED367 M9 spent medium with ComX) | complementation of PaprE-gfp expression ([3]; ΔcomQ mutant of PS-216, floating biofilm in MSgg + 20% (v/v) M9 spent medium of IPTG-induced E. coli ED367 (heterologous ComX), 37°C, control non-induced spent medium, GFP fluorescence per OD650, three biological replicates) | floating biofilm morphology [4] | effect on proteolytic activity of spent medium [5]
ComX: auto-inducing signaling peptide of B. subtilis ComQXPA system, modified by isoprenyl transferase ComQ; native in spent media or heterologously produced by E. coli ED367 (ADPITRQWGD; also: isoprenylated by ComQ, site not given here; UniProt P45453 46-55, looked up) | increased | low | high | decreases | complemented | increases | does not complement | does not complement | complementation was partial | restores the ΔcomQ mutant floating biofilm morphology to the wt morphology | 
O=C(O)CN(CCN(CC(=O)O)CC(=O)O)CC(=O)O [EDTA, ethylenediaminetetraacetic acid] |  |  |  |  |  |  |  |  |  |  | decreases
